One experiment addresses T1, BRG-1 (Homo sapiens, UniProt P51532).
T1 construct: made in house; host or cells: High Five insect cells
Kind of experiment: ATPase catalytic activity of BRG-1, ADP-Glo in vitro biochemical assay. The following applies: ATPase catalytic activity, 30 nM BRG-1, 400 μM ATP, read-out: BRG1 IP50. Background: ADP-Glo turns the ADP formed in a reaction into a luminescent signal.

Another experiment deals with T2, BRM (Homo sapiens, UniProt P51531).
T2 construct: made in house; host or cells: High Five insect cells
T2 sequence (P51531 whole entry): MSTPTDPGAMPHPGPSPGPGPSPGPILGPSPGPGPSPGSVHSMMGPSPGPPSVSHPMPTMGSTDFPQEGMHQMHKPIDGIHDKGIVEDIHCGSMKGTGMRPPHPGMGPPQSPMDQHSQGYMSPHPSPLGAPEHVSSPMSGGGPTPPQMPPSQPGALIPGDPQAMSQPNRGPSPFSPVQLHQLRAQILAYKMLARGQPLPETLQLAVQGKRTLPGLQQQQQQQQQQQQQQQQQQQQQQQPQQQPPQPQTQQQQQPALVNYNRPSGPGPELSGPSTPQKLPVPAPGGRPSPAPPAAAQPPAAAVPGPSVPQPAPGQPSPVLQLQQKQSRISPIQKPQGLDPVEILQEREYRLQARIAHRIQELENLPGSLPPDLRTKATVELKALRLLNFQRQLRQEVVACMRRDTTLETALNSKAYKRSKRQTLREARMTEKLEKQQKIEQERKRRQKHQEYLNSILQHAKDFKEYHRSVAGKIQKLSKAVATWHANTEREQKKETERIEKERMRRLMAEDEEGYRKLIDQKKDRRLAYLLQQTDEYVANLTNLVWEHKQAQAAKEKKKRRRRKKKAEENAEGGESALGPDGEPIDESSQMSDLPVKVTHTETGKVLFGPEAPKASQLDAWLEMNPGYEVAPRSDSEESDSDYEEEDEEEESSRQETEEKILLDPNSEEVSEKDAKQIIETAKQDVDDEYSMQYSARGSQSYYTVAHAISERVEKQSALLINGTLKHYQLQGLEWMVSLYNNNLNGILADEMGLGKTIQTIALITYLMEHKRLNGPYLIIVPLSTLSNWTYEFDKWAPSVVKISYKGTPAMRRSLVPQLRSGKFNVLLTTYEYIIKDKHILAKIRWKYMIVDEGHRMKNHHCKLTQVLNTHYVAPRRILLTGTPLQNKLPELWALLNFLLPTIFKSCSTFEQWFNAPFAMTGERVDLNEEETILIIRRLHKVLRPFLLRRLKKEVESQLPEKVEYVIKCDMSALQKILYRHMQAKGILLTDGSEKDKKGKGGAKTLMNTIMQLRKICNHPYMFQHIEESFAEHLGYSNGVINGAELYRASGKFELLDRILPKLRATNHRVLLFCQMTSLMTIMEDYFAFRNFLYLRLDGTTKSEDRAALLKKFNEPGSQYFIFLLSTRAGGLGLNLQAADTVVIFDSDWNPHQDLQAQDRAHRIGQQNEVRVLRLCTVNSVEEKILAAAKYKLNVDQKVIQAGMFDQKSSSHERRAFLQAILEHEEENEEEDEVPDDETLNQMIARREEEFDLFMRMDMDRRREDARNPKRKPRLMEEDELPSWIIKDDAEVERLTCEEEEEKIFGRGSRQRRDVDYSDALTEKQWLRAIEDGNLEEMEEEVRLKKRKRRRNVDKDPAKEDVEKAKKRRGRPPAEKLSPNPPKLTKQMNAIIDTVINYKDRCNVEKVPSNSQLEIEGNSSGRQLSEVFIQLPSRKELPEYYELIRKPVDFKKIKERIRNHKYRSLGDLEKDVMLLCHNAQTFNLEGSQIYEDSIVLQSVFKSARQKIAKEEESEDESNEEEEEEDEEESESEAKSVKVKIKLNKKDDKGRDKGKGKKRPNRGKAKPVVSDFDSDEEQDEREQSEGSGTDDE
Kind of experiment: ATPase catalytic activity of BRM, ADP-Glo in vitro biochemical assay. The following applies: ATPase catalytic activity, 30 nM BRM, 400 μM ATP, read-out: BRM IP50.

47 compounds from patent US20230079819A1, “COMPOUNDS AND USES THEREOF” (Foghorn Therapeutics Inc., priority 2019, published 2023) can be followed below.

T1 sequence (P51532 whole entry): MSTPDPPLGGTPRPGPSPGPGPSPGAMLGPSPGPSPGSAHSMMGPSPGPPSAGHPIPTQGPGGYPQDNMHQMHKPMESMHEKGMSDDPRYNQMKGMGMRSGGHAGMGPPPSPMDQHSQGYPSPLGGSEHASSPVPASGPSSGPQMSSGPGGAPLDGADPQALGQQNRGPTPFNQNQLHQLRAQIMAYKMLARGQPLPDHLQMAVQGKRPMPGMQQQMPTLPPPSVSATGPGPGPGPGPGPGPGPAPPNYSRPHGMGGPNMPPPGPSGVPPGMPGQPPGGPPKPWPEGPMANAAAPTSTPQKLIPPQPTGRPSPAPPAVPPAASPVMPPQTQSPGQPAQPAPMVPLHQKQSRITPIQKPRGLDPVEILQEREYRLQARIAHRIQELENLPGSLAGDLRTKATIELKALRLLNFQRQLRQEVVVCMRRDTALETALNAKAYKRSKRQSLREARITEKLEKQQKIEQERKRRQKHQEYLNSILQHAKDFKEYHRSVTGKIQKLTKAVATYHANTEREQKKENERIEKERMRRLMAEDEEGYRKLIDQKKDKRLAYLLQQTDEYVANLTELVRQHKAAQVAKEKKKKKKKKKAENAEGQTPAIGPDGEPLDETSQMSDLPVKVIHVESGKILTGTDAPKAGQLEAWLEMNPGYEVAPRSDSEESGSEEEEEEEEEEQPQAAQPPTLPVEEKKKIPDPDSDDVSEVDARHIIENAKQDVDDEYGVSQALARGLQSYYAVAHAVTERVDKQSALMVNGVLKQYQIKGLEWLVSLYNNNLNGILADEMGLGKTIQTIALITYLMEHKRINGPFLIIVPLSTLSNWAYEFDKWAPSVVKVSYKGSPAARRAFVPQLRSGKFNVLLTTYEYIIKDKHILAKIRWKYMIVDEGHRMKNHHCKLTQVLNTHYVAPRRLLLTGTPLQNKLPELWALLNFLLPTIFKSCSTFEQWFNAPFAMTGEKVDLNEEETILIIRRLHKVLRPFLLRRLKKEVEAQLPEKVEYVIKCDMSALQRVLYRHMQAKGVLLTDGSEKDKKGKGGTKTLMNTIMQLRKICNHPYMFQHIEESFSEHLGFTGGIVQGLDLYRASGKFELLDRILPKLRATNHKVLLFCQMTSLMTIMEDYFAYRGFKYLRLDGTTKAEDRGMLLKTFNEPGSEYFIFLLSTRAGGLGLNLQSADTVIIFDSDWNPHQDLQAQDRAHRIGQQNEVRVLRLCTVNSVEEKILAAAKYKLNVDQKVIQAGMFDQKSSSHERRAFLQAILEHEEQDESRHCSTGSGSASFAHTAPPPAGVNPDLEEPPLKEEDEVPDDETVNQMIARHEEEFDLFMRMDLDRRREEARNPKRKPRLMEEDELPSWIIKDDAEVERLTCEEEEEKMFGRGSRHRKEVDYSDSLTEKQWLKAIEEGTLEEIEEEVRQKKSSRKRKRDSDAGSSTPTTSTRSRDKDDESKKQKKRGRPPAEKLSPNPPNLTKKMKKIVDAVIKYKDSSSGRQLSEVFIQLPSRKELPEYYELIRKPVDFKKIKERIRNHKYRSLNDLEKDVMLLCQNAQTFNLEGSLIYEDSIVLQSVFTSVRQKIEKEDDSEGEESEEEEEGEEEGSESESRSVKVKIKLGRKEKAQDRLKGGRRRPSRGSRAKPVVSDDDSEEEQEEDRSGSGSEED

In the case of `CC1(n2ccc(C(=O)NCC(=O)Nc3nc(-c4ccc(F)c(N5CCC5)c4)cs3)c2)COC1` [Compound 510], the IC50 on BRG-1 and on BRM was over 10 nM in each case.

Turning to `CS(=O)(=O)n1ccc(C(=O)NCC(=O)Nc2nc(-c3ccc(F)c(N4CCC4)c3)cs2)c1` [Compound 511], the IC50 on BRG-1 and at BRM was under 10 nM each time.

Turning to `CC(C)(C)n1ccc(C(=O)NCC(=O)Nc2nc(-c3cccc(OC(F)F)n3)cs2)c1` [Compound 512], the IC50 at BRG-1 and on BRM was over 100 nM each time.

Regarding `CO[C@H]1C[C@H](c2cccc(-c3csc(NC(=O)CNC(=O)c4ccn(C(C)(C)C)c4)n3)n2)C1` [Compound 514], the IC50 on BRG-1 and at BRM was over 100 nM throughout.

In the case of `CO[C@H]1C[C@@H](c2cccc(-c3csc(NC(=O)CNC(=O)c4ccn(C(C)(C)C)c4)n3)n2)C1` [Compound 515], the IC50 at BRG-1 is over 100 nM; at BRM it was over 10 nM.

For `N#CC1(n2ccc(C(=O)NCC(=O)Nc3nc(-c4ccc(F)c(N5CCC5)c4)cs3)c2)CC1` [Compound 516], the IC50 on BRG-1 and on BRM was over 10 nM each time.

On to `C[C@@H]1Cc2ccc(-c3csc(NC(=O)CNC(=O)c4ccn(S(C)(=O)=O)c4)n3)cc2O1` [Compound 517], for which the IC50 at BRG-1 and on BRM was over 10 nM throughout.

`CS(=O)(=O)n1ccc(C(=O)NCC(=O)Nc2nc(-c3cc(F)cc(N4CCC4)c3)cs2)c1` [Compound 518]: the IC50 on BRG-1 and at BRM was under 10 nM each time.

For `CC1(n2ccc(C(=O)NCC(=O)Nc3nc(-c4cc(F)cc(N5CCC5)c4)cs3)c2)COC1` [Compound 519], the IC50 at BRG-1 and on BRM was over 10 nM in each case.

In the case of `C[C@@H]1CN(c2cccc(-c3nc(NC(=O)CNC(=O)c4ccn(C(C)(C)C)c4)sc3F)n2)C[C@H](C)O1` [Compound 520, 1-(tert-butyl)-N-(2-((4-(6-(cis-2,6-dimethylmorpholino)pyridin-2-yl)-5-fluorothiazol-2-yl)amino)-2-oxoethyl)-1H-pyrrole-3-carboxamide], the results for the IC50 on BRG-1 and on BRM were over 100 nM and over 10 nM, respectively.

Consider `N#CC1(n2ccc(C(=O)NCC(=O)Nc3nc(-c4cc(F)cc(N5CCC5)c4)cs3)c2)CC1` [Compound 521], for which the IC50 at BRG-1 is over 10 nM; on BRM, under 10 nM.

As for `N#CC1(n2ccc(C(=O)NCC(=O)Nc3nc(-c4cccc(OC(F)F)n4)cs3)c2)CC1` [Compound 522], the IC50 on BRG-1 and at BRM was over 100 nM each time.

With `Cc1cncc(-c2cccc(-c3csc(NC(=O)CNC(=O)c4ccn(C5(C)COC5)c4)n3)n2)n1` [Compound 523, 1-(3-methyloxetan-3-yl)-N-[2-[[4-[6-(6-methylpyrazin-2-yl)-2-pyridyl]thiazol-2-yl]amino]-2-oxo-ethyl]pyrrole-3-carboxamide], the IC50 on BRG-1 and on BRM was over 10 nM throughout.

Consider `N#CC1(n2ccc(C(=O)NCC(=O)Nc3nc(-c4cccc(N5CCC5)c4F)cs3)c2)CC1` [Compound 524], for which the IC50 on BRG-1 is over 10 nM; at BRM it was under 10 nM.

As to `CC1(n2ccc(C(=O)NCC(=O)Nc3nc(-c4cccc(N5CCC5)c4F)cs3)c2)COC1` [Compound 525], the IC50 on BRG-1 and on BRM was over 10 nM each time.

Consider `COC[C@H](NC(=O)c1ccn(C2(C#N)CC2)c1)C(=O)Nc1nc(-c2ccc3ccn(C)c(=O)c3c2)cs1` [Compound 526], for which the IC50 on BRG-1 and on BRM was over 10 nM in each case.

As to `C[C@H]1Cc2ccc(-c3csc(NC(=O)CNC(=O)c4ccn(S(C)(=O)=O)c4)n3)cc2O1` [Compound 527], the IC50 at BRG-1 and at BRM was over 10 nM throughout.

As to `N#CC1(n2ccc(C(=O)NCC(=O)Nc3nc(-c4cccc(OCC5(F)COC5)c4)cs3)c2)CC1` [Compound 528], the IC50 at BRG-1 and at BRM was over 100 nM each time.

Take `Cc1cncc(-c2cccc(-c3csc(NC(=O)CNC(=O)c4ccn(C5(C)COC5)c4)n3)c2)n1` [Compound 529]: the results for the IC50 at BRG-1 and on BRM were over 10 nM and under 10 nM, respectively.

Take `CO[C@H]1C[C@H](c2cccc(-c3csc(NC(=O)CNC(=O)c4ccn(S(C)(=O)=O)c4)n3)c2)C1` [Compound 530]: the IC50 on BRG-1 and at BRM was over 10 nM in each case.

With `CO[C@H]1C[C@H](c2ccc(-c3csc(NC(=O)CNC(=O)c4ccn(S(C)(=O)=O)c4)n3)cc2)C1` [Compound 531], the IC50 on BRG-1 and on BRM was over 10 nM throughout.

`C[C@H](NC(=O)c1ccn(C2(C#N)CC2)c1)C(=O)Nc1nc(-c2ccc3ccn(C)c(=O)c3c2)cs1` [Compound 532]: the IC50 at BRG-1 and on BRM was over 10 nM each time.

`CS(=O)(=O)n1ccc(C(=O)NCC(=O)Nc2nc(-c3cccc(N4CCC(C(F)F)CC4)c3)cs2)c1` [Compound 543]: the IC50 at BRG-1 and at BRM was over 10 nM each time.

`CS(=O)(=O)n1ccc(C(=O)NCC(=O)Nc2nc(-c3cc(F)c4c(c3)CCO4)cs2)c1` [Compound 544]: the IC50 on BRG-1 and at BRM was under 10 nM throughout.

As to `COC[C@H](NC(=O)c1ccn(S(C)(=O)=O)c1)C(=O)Nc1nc(-c2ccc(F)c(OC3CC3)c2)cs1` [Compound 545], the IC50 is over 100 nM at BRG-1 and over 10 nM on BRM.

`CN1CCOc2c(F)cc(-c3csc(NC(=O)CNC(=O)c4ccn(S(C)(=O)=O)c4)n3)cc21` [Compound 546]: the IC50 on BRG-1 and at BRM was under 10 nM throughout.

On to `CC(C)(C)n1ccc(C(=O)NCC(=O)Nc2nc(-c3cccc(OC4CC4)c3F)cs2)c1` [Compound 547], for which the IC50 on BRG-1 is over 100 nM; on BRM, over 10 nM.

Take `CC1(n2ccc(C(=O)NCC(=O)Nc3nc(-c4cccc(OC5CC5)c4F)cs3)c2)COC1` [Compound 548]: the IC50 at BRG-1 and on BRM was over 100 nM each time.

As to `COC[C@H](NC(=O)c1ccn(S(C)(=O)=O)c1)C(=O)Nc1nc(-c2ccc(F)c(N3CCC3)c2)cs1` [Compound 549], the IC50 on BRG-1 is over 10 nM; at BRM it was under 10 nM.

As for `COC[C@H](NC(=O)c1ccn(C(C)(C)C)c1)C(=O)Nc1nc(-c2ccc3c(=O)n(C)ccc3c2)cs1` [Compound 551], the IC50 on BRG-1 and on BRM was over 10 nM throughout.

As for `CS(=O)(=O)n1ccc(C(=O)NCC(=O)Nc2nc(-c3cccc(N4CC[C@H](N)C(F)(F)C4)c3)cs2)c1` [Compound 552], the IC50 at BRG-1 and at BRM was over 10 nM in each case.

Consider `N#CC1(n2ccc(C(=O)NCC(=O)Nc3nc(-c4cccc(OC(F)(F)F)c4)cs3)c2)CC1` [Compound 553], for which the IC50 on BRG-1 and at BRM was over 10 nM throughout.

As to `N#CC1(n2ccc(C(=O)NCC(=O)Nc3nc(-c4cccc(OC5CC5)c4)cs3)c2)CC1` [Compound 554, 1-(1-cyanocyclopropyl)-N-[2-[[4-[3-(cyclopropoxy)phenyl]thiazol-2-yl]amino]-2-oxo-ethyl]pyrrole-3-carboxamide], the IC50 is over 100 nM on BRG-1 and over 10 nM on BRM.

Regarding `N#CC1(n2ccc(C(=O)NCC(=O)Nc3nc(-c4cc(F)cc(OC5CC5)c4)cs3)c2)CC1` [Compound 555], the IC50 on BRG-1 and at BRM was over 10 nM throughout.

As to `N#CC1(n2ccc(C(=O)NCC(=O)Nc3nc(-c4cccc(OC5CC5)c4F)cs3)c2)CC1` [Compound 556], the IC50 at BRG-1 is over 100 nM; at BRM it was over 10 nM.

Take `COC[C@H](NC(=O)c1ccn(S(C)(=O)=O)c1)C(=O)Nc1nc(-c2cccc(N3CCC(C(F)F)CC3)c2)cs1` [Compound 557, (S)—N-(1-((4-(3-(4-(difluoromethyl)piperidin-1-yl)phenyl)thiazol-2-yl)amino)-3-methoxy-1-oxopropan-2-yl)-1-(methylsulfonyl)-1H-pyrrole-3-carboxamide]: the IC50 at BRG-1 and at BRM was over 10 nM each time.

Consider `CS(=O)(=O)n1ccc(C(=O)NCC(=O)Nc2nc(-c3cccc(N4CC[C@@H](N)C(F)(F)C4)c3)cs2)c1` [Compound 558], for which the IC50 on BRG-1 and at BRM was under 10 nM each time.

In the case of `N#CC1(n2ccc(C(=O)NCC(=O)Nc3nc(-c4cccc(OC5CC5)n4)cs3)c2)CC1` [Compound 559], the IC50 at BRG-1 and on BRM was over 100 nM each time.

Regarding `C[C@@H]1CN(c2cccc(-c3csc(NC(=O)[C@H](C)NC(=O)c4ccn(C5(C#N)CC5)c4)n3)n2)C[C@H](C)O1` [Compound 560], the IC50 at BRG-1 and at BRM was over 10 nM in each case.

Take `COC[C@H](NC(=O)c1ccn(C(C)(C)C)c1)C(=O)Nc1nc(-c2ccc3c(F)cn(C)c(=O)c3c2)cs1` [Compound 561]: the IC50 at BRG-1 and on BRM was under 10 nM in each case.

Regarding `Cn1ccc(-c2cccc(-c3csc(NC(=O)CNC(=O)c4ccn(C(C)(C)C#N)c4)n3)c2)n1` [Compound 562], the IC50 is over 10 nM at BRG-1 and under 10 nM on BRM.

For `COC[C@H](NC(=O)c1ccn(C(C)(C)C)c1)C(=O)Nc1nc(-c2cc(F)c3ccn(C)c(=O)c3c2)cs1` [Compound 563], the IC50 on BRG-1 and at BRM was under 10 nM throughout.

On to `COC[C@H](NC(=O)c1ccn(C2(C)COC2)c1)C(=O)Nc1nc(-c2cc(F)c3ccn(C)c(=O)c3c2)cs1` [Compound 564], for which the IC50 at BRG-1 and at BRM was under 10 nM each time.

Take `CN1CCc2c(F)ccc(-c3csc(NC(=O)CNC(=O)c4ccn(S(C)(=O)=O)c4)n3)c21` [Compound 565]: the IC50 on BRG-1 and at BRM was over 10 nM in each case.

Consider `COCC[C@H](NC(=O)c1ccn(C(C)(C)C)c1)C(=O)Nc1nc(-c2ccc3ccn(C)c(=O)c3c2)cs1` [Compound 567], for which the IC50 on BRG-1 and at BRM was over 10 nM throughout.

As for `COC[C@H](NC(=O)c1ccn(C2(C#N)CC2)c1)C(=O)Nc1nc(-c2cccc(-c3ccn(C)n3)c2)cs1` [Compound 568], the IC50 on BRG-1 and on BRM was over 10 nM throughout.

Regarding `CN1CCc2c(F)cc(-c3csc(NC(=O)CNC(=O)c4ccn(S(C)(=O)=O)c4)n3)cc21` [Compound 569], the IC50 at BRG-1 and on BRM was under 10 nM each time.
